Reference: PubChem BioAssay (NCI)
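Compound exposure: 48 hours, 5 concentrations, 96-well plates. At the TGI there is no net growth.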

Experiments:
Assay in all cases: NCI tumour cell line growth inhibition, 48 h
EKVX NSCLC = tested on: EKVX NSCLC
HCC-2998 colon = tested on: HCC-2998 colon
U251 CNS = tested on: U251 CNS
OVCAR-5 ovarian = tested on: OVCAR-5 ovarian
SNB-75 CNS = tested on: SNB-75 CNS
SF-295 CNS = tested on: SF-295 CNS
BT-549 breast = tested on: BT-549 breast
OVCAR-4 ovarian = tested on: OVCAR-4 ovarian
MDA-MB-435 = tested on: MDA-MB-435
A498 renal = tested on: A498 renal
RPMI-8226 leukemia = tested on: RPMI-8226 leukemia
T-47D breast = tested on: T-47D breast
MOLT-4 leukemia = tested on: MOLT-4 leukemia
SF-539 CNS = tested on: SF-539 CNS
NCI/ADR-RES ovarian = tested on: NCI/ADR-RES ovarian
KM12 colon = tested on: KM12 colon
MDA-MB-231 breast = tested on: MDA-MB-231 breast
HCT-15 colon = tested on: HCT-15 colon
M14 melanoma = tested on: M14 melanoma
NCI-H226 lung = tested on: NCI-H226 lung
NCI-H23 lung = tested on: NCI-H23 lung
A549 NSCLC = tested on: A549 NSCLC
HOP-62 NSCLC = tested on: HOP-62 NSCLC
SNB-19 CNS = tested on: SNB-19 CNS
SK-MEL-2 melanoma = tested on: SK-MEL-2 melanoma
UO-31 renal = tested on: UO-31 renal
HS 578T breast = tested on: HS 578T breast
CCRF-CEM leukemia = tested on: CCRF-CEM leukemia
SK-MEL-5 melanoma = tested on: SK-MEL-5 melanoma
TK-10 renal = tested on: TK-10 renal
SN12C renal = tested on: SN12C renal
HT29 colon = tested on: HT29 colon
SW-620 colon = tested on: SW-620 colon
HCT-116 colon = tested on: HCT-116 colon
786-0 renal = tested on: 786-0 renal
COLO 205 colon = tested on: COLO 205 colon
NCI-H522 lung = tested on: NCI-H522 lung
OVCAR-8 ovarian = tested on: OVCAR-8 ovarian
DU-145 prostate = tested on: DU-145 prostate
HL-60(TB) leukemia = tested on: HL-60(TB) leukemia
SF-268 CNS = tested on: SF-268 CNS
SK-OV-3 ovarian = tested on: SK-OV-3 ovarian
SK-MEL-28 melanoma = tested on: SK-MEL-28 melanoma
MALME-3M melanoma = tested on: MALME-3M melanoma
LOX IMVI melanoma = tested on: LOX IMVI melanoma
NCI-H460 lung = tested on: NCI-H460 lung
IGROV1 ovarian = tested on: IGROV1 ovarian
SR leukemia = tested on: SR leukemia
PC-3 prostate = tested on: PC-3 prostate
UACC-62 melanoma = tested on: UACC-62 melanoma
CAKI-1 renal = tested on: CAKI-1 renal
MCF7 breast = tested on: MCF7 breast
K-562 leukemia = tested on: K-562 leukemia
ACHN renal = tested on: ACHN renal
MDA-N = tested on: MDA-N
OVCAR-3 ovarian = tested on: OVCAR-3 ovarian
UACC-257 melanoma = tested on: UACC-257 melanoma
RXF 393 renal = tested on: RXF 393 renal

`C=C(C)c1cc(C(C)(C)C)cc(C(=C)C)c1S(C)(=O)=O` was tested, and the TGI (EKVX NSCLC) was over 100 µM, the TGI (HCC-2998 colon) was over 100 µM and the TGI (U251 CNS) was over 100 µM. For the same compound, the TGI (OVCAR-5 ovarian) was over 100 µM, the TGI (SNB-75 CNS) was over 100 µM and the TGI (SF-295 CNS) was over 100 µM. For the same compound, the TGI (BT-549 breast) was over 100 µM, the TGI (OVCAR-4 ovarian) was over 100 µM and the TGI (MDA-MB-435) was over 100 µM. It also gave a TGI (A498 renal) of over 100 µM, a TGI (RPMI-8226 leukemia) of over 100 µM and a TGI (T-47D breast) of over 100 µM. For the same compound, the TGI (MOLT-4 leukemia) was over 100 µM, the TGI (SF-539 CNS) was over 100 µM and the TGI (NCI/ADR-RES ovarian) was over 100 µM. It also gave a TGI (KM12 colon) of over 100 µM, a TGI (MDA-MB-231 breast) of over 100 µM and a TGI (HCT-15 colon) of over 100 µM. It also gave a TGI (M14 melanoma) of over 100 µM, a TGI (NCI-H226 lung) of over 100 µM and a TGI (NCI-H23 lung) of over 100 µM. For the same compound, the TGI (A549 NSCLC) was over 100 µM, the TGI (HOP-62 NSCLC) was over 100 µM and the TGI (SNB-19 CNS) was over 100 µM. It also gave a TGI (SK-MEL-2 melanoma) of over 100 µM, a TGI (UO-31 renal) of over 100 µM and a TGI (HS 578T breast) of over 100 µM. It also gave a TGI (CCRF-CEM leukemia) of over 100 µM, a TGI (SK-MEL-5 melanoma) of over 100 µM and a TGI (TK-10 renal) of over 100 µM. For the same compound, the TGI (SN12C renal) was over 100 µM, the TGI (HT29 colon) was over 100 µM and the TGI (SW-620 colon) was over 100 µM. It also gave a TGI (HCT-116 colon) of over 100 µM, a TGI (786-0 renal) of over 100 µM and a TGI (COLO 205 colon) of over 100 µM. The TGI (NCI-H522 lung) was over 100 µM, the TGI (OVCAR-8 ovarian) was over 100 µM and the TGI (DU-145 prostate) was over 100 µM. The TGI (HL-60(TB) leukemia) was over 100 µM, the TGI (SF-268 CNS) was over 100 µM and the TGI (SK-OV-3 ovarian) was over 100 µM. For the same compound, the TGI (SK-MEL-28 melanoma) was over 100 µM, the TGI (MALME-3M melanoma) was over 100 µM and the TGI (LOX IMVI melanoma) was over 100 µM. For the same compound, the TGI (NCI-H460 lung) was over 100 µM, the TGI (IGROV1 ovarian) was over 100 µM and the TGI (SR leukemia) was over 100 µM. For the same compound, the TGI (PC-3 prostate) was over 100 µM, the TGI (UACC-62 melanoma) was over 100 µM and the TGI (CAKI-1 renal) was over 100 µM. The TGI (MCF7 breast) was over 100 µM, the TGI (K-562 leukemia) was over 100 µM and the TGI (ACHN renal) was over 100 µM. For the same compound, the TGI (MDA-N) was over 100 µM and the TGI (OVCAR-3 ovarian) was over 100 µM.

In the case of `COC(=O)C(Cc1ccc(OC)cc1O)NC(=O)OC(C)(C)C` (centres undefined), the TGI (EKVX NSCLC) is reported as over 100 µM, the TGI (HCC-2998 colon) is reported as over 100 µM and the TGI (U251 CNS) is reported as over 100 µM. The TGI (OVCAR-5 ovarian) was over 100 µM, the TGI (SNB-75 CNS) was over 100 µM and the TGI (SF-295 CNS) was over 100 µM. The TGI (BT-549 breast) was over 100 µM, the TGI (OVCAR-4 ovarian) was over 100 µM and the TGI (MDA-MB-435) was over 100 µM. It also gave a TGI (T-47D breast) of over 100 µM, a TGI (MOLT-4 leukemia) of over 100 µM and a TGI (SF-539 CNS) of over 100 µM. The TGI (NCI/ADR-RES ovarian) was over 100 µM, the TGI (KM12 colon) was over 100 µM and the TGI (MDA-MB-231 breast) was over 100 µM. For the same compound, the TGI (HCT-15 colon) was over 100 µM, the TGI (M14 melanoma) was over 100 µM and the TGI (NCI-H226 lung) was over 100 µM. For the same compound, the TGI (NCI-H23 lung) was over 100 µM, the TGI (A549 NSCLC) was over 100 µM and the TGI (HOP-62 NSCLC) was over 100 µM. The TGI (SNB-19 CNS) was over 100 µM, the TGI (SK-MEL-2 melanoma) was over 100 µM and the TGI (UO-31 renal) was over 100 µM. For the same compound, the TGI (UACC-257 melanoma) was 95 µM, the TGI (HS 578T breast) was over 100 µM and the TGI (RXF 393 renal) was over 100 µM. It also gave a TGI (CCRF-CEM leukemia) of over 100 µM, a TGI (SK-MEL-5 melanoma) of over 100 µM and a TGI (TK-10 renal) of over 100 µM. For the same compound, the TGI (SN12C renal) was over 100 µM, the TGI (HT29 colon) was over 100 µM and the TGI (SW-620 colon) was over 100 µM. For the same compound, the TGI (HCT-116 colon) was over 100 µM, the TGI (786-0 renal) was over 100 µM and the TGI (COLO 205 colon) was over 100 µM. It also gave a TGI (NCI-H522 lung) of over 100 µM, a TGI (OVCAR-8 ovarian) of over 100 µM and a TGI (DU-145 prostate) of over 100 µM. The TGI (HL-60(TB) leukemia) was over 100 µM, the TGI (SF-268 CNS) was over 100 µM and the TGI (SK-OV-3 ovarian) was over 100 µM. For the same compound, the TGI (SK-MEL-28 melanoma) was over 100 µM, the TGI (MALME-3M melanoma) was over 100 µM and the TGI (LOX IMVI melanoma) was over 100 µM. For the same compound, the TGI (NCI-H460 lung) was over 100 µM, the TGI (IGROV1 ovarian) was over 100 µM and the TGI (SR leukemia) was over 100 µM. The TGI (PC-3 prostate) was over 100 µM, the TGI (UACC-62 melanoma) was over 100 µM and the TGI (CAKI-1 renal) was over 100 µM. It also gave a TGI (MCF7 breast) of over 100 µM, a TGI (K-562 leukemia) of over 100 µM and a TGI (ACHN renal) of over 100 µM. For the same compound, the TGI (MDA-N) was over 100 µM and the TGI (OVCAR-3 ovarian) was over 100 µM.

For `Cc1nc2c(=O)[nH]ncc2[nH]1`, the TGI (EKVX NSCLC) was over 100 µM, the TGI (U251 CNS) was over 100 µM and the TGI (OVCAR-5 ovarian) was over 100 µM. It also gave a TGI (SNB-75 CNS) of over 100 µM, a TGI (SF-295 CNS) of over 100 µM and a TGI (BT-549 breast) of over 100 µM. For the same compound, the TGI (MDA-MB-435) was over 100 µM, the TGI (A498 renal) was over 100 µM and the TGI (RPMI-8226 leukemia) was over 100 µM. For the same compound, the TGI (T-47D breast) was over 100 µM, the TGI (MOLT-4 leukemia) was over 100 µM and the TGI (SF-539 CNS) was over 100 µM. For the same compound, the TGI (NCI/ADR-RES ovarian) was over 100 µM, the TGI (KM12 colon) was over 100 µM and the TGI (MDA-MB-231 breast) was over 100 µM. It also gave a TGI (HCT-15 colon) of over 100 µM, a TGI (M14 melanoma) of over 100 µM and a TGI (NCI-H226 lung) of over 100 µM. The TGI (NCI-H23 lung) was over 100 µM, the TGI (A549 NSCLC) was over 100 µM and the TGI (HOP-62 NSCLC) was over 100 µM. It also gave a TGI (SNB-19 CNS) of over 100 µM, a TGI (SK-MEL-2 melanoma) of over 100 µM and a TGI (UO-31 renal) of over 100 µM. For the same compound, the TGI (UACC-257 melanoma) was over 100 µM, the TGI (HS 578T breast) was over 100 µM and the TGI (RXF 393 renal) was over 100 µM. The TGI (CCRF-CEM leukemia) was over 100 µM, the TGI (SK-MEL-5 melanoma) was over 100 µM and the TGI (TK-10 renal) was over 100 µM. It also gave a TGI (SN12C renal) of over 100 µM, a TGI (HT29 colon) of over 100 µM and a TGI (SW-620 colon) of over 100 µM. The TGI (HCT-116 colon) was over 100 µM, the TGI (786-0 renal) was over 100 µM and the TGI (COLO 205 colon) was over 100 µM. For the same compound, the TGI (OVCAR-8 ovarian) was over 100 µM, the TGI (DU-145 prostate) was over 100 µM and the TGI (HL-60(TB) leukemia) was over 100 µM. It also gave a TGI (SF-268 CNS) of over 100 µM, a TGI (SK-MEL-28 melanoma) of over 100 µM and a TGI (NCI-H460 lung) of over 100 µM. It also gave a TGI (IGROV1 ovarian) of over 100 µM, a TGI (SR leukemia) of over 100 µM and a TGI (PC-3 prostate) of over 100 µM. The TGI (UACC-62 melanoma) was over 100 µM, the TGI (CAKI-1 renal) was over 100 µM and the TGI (MCF7 breast) was over 100 µM. For the same compound, the TGI (K-562 leukemia) was over 100 µM, the TGI (ACHN renal) was over 100 µM and the TGI (MDA-N) was over 100 µM. It also gave a TGI (OVCAR-3 ovarian) of over 100 µM.
